The values below come from patent US9440913B2, “Dihydroxybenzene derivatives and antiprotozoal agent comprising same as active ingredient” (NAI INC., priority 2010, dated 2016).

Data set [1] deals with T1, recombinant Trypanosome AOX (TAO) enzyme (Trypanosoma brucei brucei, UniProt Q26710).
T1 construct: made in house; host or cells: Escherichia coli (membrane fraction)
Briefly: TAO enzyme inhibition (quinol oxidase activity, ubiquinol-1 substrate). It is filed as biochemical, T. brucei brucei. As to conditions: TAO-expressing E. coli membrane fraction, 25° C., ubiquinol-1, absorbance at 278 nm. The protocol:
Escherichia coli membrane fractions that express TAO by a plasmid harboring TAO cDNA cloned from T. brucei brucei (Fukai, Comparative Biochemistry & Physiology, 124, 141-148, 1999) were used as a recombinant Trypanosome AOX (TAO) enzyme. 50 mM Tris-HCl (pH 7.5), TAO-expressing membrane fraction (0.35 ng), and […] of an inhibitor were mixed in a 1 mL cuvette, and the mixture was incubated at 25° C. for 4 minutes. Ubiquinol-1 as a substrate was then added to the mixture to initiated the reaction, and change in absorbance at 278 nm was monitored (Shimadzu UV-3000, molar absorption coefficient ε=15 cm^−1 mM^−1).

A further data set deals with T. b. rhodesiense IL1501. Kind of data set: Antiprotozoal effect, MIC measurement in HMI-9 culture. The class given is cell-based. As to conditions: for MIC: bloodstream forms, 18 + 6 hours culture. Here is the method: T. b. rhodesiense IL1501, the human infectious protozoan that causes acute symptoms, was used as a Trypanosomatid protozoan. The bloodstream forms of protozoan can be cultured in a HMI-9 culture medium (Hirumi, 1989). The protozoan was always cultured at a temperature of 37° C. in the presence of 5% CO2.
In a microtiter plate (96-well, FALCON 3072), HMI-9 culture medium and HMI-9 culture medium plus glycerol added to make a final concentration of 8.33 mM are separately prepared. 89 μL of the preparation are put into only the first well, and a 60 μL aliquot of each the other wells. 1 μL of a solution of AF or a AF derivative dissolved in DMSO was added to the first well, and was then suspended. A 30 μL aliquot of the suspension was then collected, was transferred to the second well, and was suspended. These operations were repeated in this order to prepare a three-fold dilution series of drug. A 40 μL aliquot of a protozoan culture was added to each well to make a final concentration of 5×10^4 cells/well (a final concentration of glycerol of 5 mM) followed by 18-hours culturing under conditions of 37° C. and 5% CO2. (For EC50 measurement, a 10 μL aliquot of Alamar Blue was added to each well), culturing was carried out under the same conditions for 6 more hours, surviving protozoans were visually observed with a microscope. The concentration at which no motile surviving protozoan was observed was defined as MIC.

[2] abbreviates: Trypanosoma brucei, RHODESIENSE, 24 h, Glycerol (+), final concentration of glycerol of 5 mM.
The mark [3] stands for this setting: Trypanosoma brucei, RHODESIENSE, 24 h, Glycerol (−).

T1 sequence (Q26710 whole entry): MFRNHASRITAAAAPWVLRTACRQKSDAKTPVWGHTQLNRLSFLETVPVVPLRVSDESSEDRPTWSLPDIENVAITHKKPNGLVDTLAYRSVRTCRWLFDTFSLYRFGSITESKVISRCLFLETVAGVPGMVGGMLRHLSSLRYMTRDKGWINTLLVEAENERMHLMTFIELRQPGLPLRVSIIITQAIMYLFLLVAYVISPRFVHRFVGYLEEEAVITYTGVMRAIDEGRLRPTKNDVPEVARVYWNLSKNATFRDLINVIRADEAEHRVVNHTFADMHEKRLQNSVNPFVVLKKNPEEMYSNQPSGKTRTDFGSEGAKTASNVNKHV

Consider `COC(=O)c1cc(Cl)c(O)c(C/C=C(\C)CCC=C(C)C)c1O`, for which the melting point (in general, the temperature, or range, at which the solid turns liquid) amounted to 71 °C.
Molecule `CCCCCC(C)=CCc1c(O)c(Cl)c(C)c(C(C)=O)c1O` (mixture of isomers) [Compound 268-8, (E/Z)-3-Chloro-4,6-dihydroxy-2-methyl-5-(3-methyl-2-octenyl)acetophenone] registered a melting point of 42 to 46 °C. In addition, the IC50 (in general, the concentration that gives 50% inhibition) in data set [1] was 0.55 nM. In addition, the minimal inhibitory concentration (MIC) (commonly the lowest concentration found to suppress growth) with T. b. rhodesiense IL1501 (setting [2]) turned out to be 0.28 nM. For the same molecule, the MIC in the data set on T. b. rhodesiense IL1501 (setting [3]) stood at 14.7 nM.
Molecule `COC(=O)c1c(C)cc(O)c(C/C=C(\C)CCC=C(C)C)c1O` [Compound 146, Methyl (E)-3-(3,7-Dimethyl-2,6-octadienyl)-2,4-dihydroxy-6-methylbenzoate] registered a melting point of 46 to 47 °C.
On the same count and under the same terms, the result for `COC(=O)c1ccc(O)c(C/C=C(\C)CCC=C(C)C)c1O` [Compound 161, Methyl (E)-3-(3,7-Dimethyl-2,6-octadienyl)-2,4-dihydroxybenzoate] reads 62 °C.
`CC(=O)c1c(C)c(Cl)c(O)c(C/C=C(\C)CCC=C(C)C)c1O` [Compound 173, (E)-3-Chloro-4,6-dihydroxy-5-(3,7-dimethyl-2,6-octadienyl)-2-methylacetophenone] gave a melting point of 57 to 58 °C. Moreover, the IC50 in data set [1] is 0.15 nM. Besides, in the data set on T. b. rhodesiense IL1501 (Glycerol (+), final concentration of glycerol of 5 mM, cell prints its own unit fM), the “Antiprotozoal Effect (MIC) Glycerol (+)” value is 0.0008 nM. Moreover, in the data set with T. b. rhodesiense IL1501 (setting [3]), the MIC was determined as 1.4 nM.
In turn, `CC(=O)c1cc(Cl)c(O)c(CCCCCCCOC(=O)C(C)(C)C)c1O` [Compound 178-11-OPiv, 7-(3-Acetyl-5-chloro-2,6-dihydroxyphenyl)heptyl pivalate] came in with a melting point of 48 °C.
For the molecule `Cc1c(Cl)c(O)c(CCCCCCCOC(=O)C(C)(C)C)c(O)c1C#N` [Compound 193-11-OPiv, 7-(3-Chloro-5-cyano-2,6-dihydroxy-4-methylphenyl)heptyl pivalate], the melting point lay within 67 to 68 °C. Further, the half-inhibitory concentration (IC50) in data set [1] came to 6 nM.
The matching figures for `Cc1c(Cl)c(O)c(/C=C/CCCCCCOC(=O)C(C)(C)C)c(O)c1C=O` [Compound 200-12-OPiv, (E)-8-(3-Chloro-5-formyl-2,6-dihydroxy-4-methylphenyl)-7-octenyl pivalate]: 57 to 58 °C and 0.7 nM.
`CCC(=O)OCCCCCCC/C=C/c1c(O)c(Cl)c(C)c(C=O)c1O` [Compound 200-13-OCOEt, (E)-9-(3-Chloro-5-formyl-2,6-dihydroxy-4-methylphenyl)-8-nonenyl propionate] came in with a melting point of 72 to 73 °C. Besides, the IC50 in data set [1] is 0.3 nM.
`C/C(=C\Cc1c(O)c(Cl)cc(C=O)c1O)CC/C=C(\C)C1CC(=O)C(C)(C)O1` (stereo not shown) [Compound 209, 5-Chloro-2,4-dihydroxy-3-[(2E,6E)-7-(5,5-dimethyl-4-oxotetrahydrohuran-2-yl)-3,7-dimethyl-2,6-heptadienyl]benzaldehyde] yielded a melting point of 70 to 72 °C. In data set [1], the IC50 turned out to be 0.2 nM.
As to `Cc1c(Cl)c(O)c(CCCCCCCC(=O)O)c(O)c1C=O` [Compound 215-9-COOH, 8-(3-Chloro-5-formyl-2,6-dihydroxy-4-methylphenyl)octanoic acid], the melting point lay within 149 to 150 °C.
Molecule `Cc1c(Cl)c(O)c(CCCCCCCCCCCC(=O)O)c(O)c1C=O` [Compound 215-13-COOH, 12-(3-Chloro-5-formyl-2,6-dihydroxy-4-methylphenyl)dodecanoic acid] had a melting point of 130 to 131 °C. In addition, the IC50 in data set [1] stood at 4.2 nM.
As to `Cc1c(Cl)c(O)c(CCCCCCCCCOC(=O)C(C)(C)C)c(O)c1C=O` [Compound 215-13-OPiv, 9-(3-Chloro-5-formyl-2,6-dihydroxy-4-methylphenyl)nonyl pivalate], the melting point was determined as 62 °C. The IC50 in data set [1] was 0.22 nM. The MIC with T. b. rhodesiense IL1501 (setting [2]) came to 0.0081 nM. In the data set on T. b. rhodesiense IL1501 (setting [3]), the MIC amounted to 280 nM.
Turning to `CC(C)=CCC/C(C)=C/Cc1c(O)cc(C)c(C=O)c1O` [Compound 216, (E)-2,4-Dihydroxy-3-(3,7-dimethyl-2,6-octadienyl)-6-methylbenzaldehyde], the melting point was in the range of 120 to 121 °C.
Still for that read-out and setting: then `CC(C)=CCC/C(C)=C/Cc1c(O)ccc(C=O)c1O` [Compound 217, (E)-2,4-Dihydroxy-3-(3,7-dimethyl-2,6-octadienyl)benzaldehyde], with 85 °C; and `CC(C)=CCC/C(C)=C/Cc1c(O)c(Cl)cc(C=O)c1O` [Compound 224, (E)-5-Chloro-2,4-dihydroxy-3-(3,7-dimethyl-2,6-octadienyl)benzaldehyde], with 94 to 95 °C.
The molecule `C/C(=C\CC/C(C)=C/Cc1c(O)c(Cl)c(C)c(C=O)c1O)CO` [Compound 236-9-OH, 3-Chloro-4,6-dihydroxy-5-[(2E,6E)-8-hydroxy-3,7-dimethyl-2,6-octadienyl]-2-methylbenzaldehyde] came in with a melting point of 99 to 99.7 °C. For the same molecule, in data set [1], the IC50 is 0.3 nM.
In the case of `COCOC/C(C)=C/CC/C(C)=C/Cc1c(O)c(Cl)c(C)c(C=O)c1O` [Compound 236-12-OMOM, 3-Chloro-5-[(2E,6E)-3,7-dimethyl-8-(methoxymethoxy)-2,6-octadienyl]-4,6-dihydroxy-2-methylbenzaldehyde], the melting point lay in the range of 49 to 50 °C. In addition, the IC50 in data set [1] was determined as 0.12 nM.
In the same order, the values of `C/C(=C\Cc1c(O)c(Cl)c(C)c(C=O)c1O)CC/C=C(\C)COC1CCCO1` (stereo not shown) [Compound 236-12-OTHF, 3-Chloro-5-[(2E,6E)-3,7-dimethyl-8-(tetrahydrofuran-2-yloxy)-2,6-octadienyl]-4,6-dihydroxy-2-methylbenzaldehyde] are 35 to 36 °C and 0.12 nM.
For `Cc1c(Cl)c(O)c(CCCCCCCC2CC(=O)C(C)(C)O2)c(O)c1C=O` (stereo not shown) [Compound 250, 5-Chloro-2,4-dihydroxy-6-methyl-3-[7-(3,3-dimethyl-4-oxo-2-oxacyclopentyl)heptyl]benzaldehyde], the melting point lay in the range of 70 to 71 °C. Moreover, the IC50 in data set [1] came to 0.5 nM. In the data set with T. b. rhodesiense IL1501 (setting [2]), the MIC was determined as 0.78 nM. In addition, the MIC in the data set with T. b. rhodesiense IL1501 (setting [3]) stood at 12 nM.
For `CCCCCC(C)CCc1c(O)c(Cl)c(C)c(C=O)c1O` (stereo not shown) [Compound 265-8, 3-Chloro-4,6-dihydroxy-2-methyl-5-(3-methyloctyl)benzaldehyde], the melting point was in the range of 65 to 67 °C. In data set [1], the IC50 came to 0.18 nM. Further, in the data set on T. b. rhodesiense IL1501 (setting [2]), the minimal inhibitory concentration (MIC) is 0.011 nM. Besides, the minimum inhibitory concentration (MIC) in the data set with T. b. rhodesiense IL1501 (setting [3]) amounted to 0.46 nM.
As for `CCCCCC(C)CCc1c(O)c(Cl)c(C)c(C(C)=O)c1O` (stereo not shown) [Compound 269-8, 3-Chloro-4,6-dihydroxy-2-methyl-5-(3-methyloctyl)acetophenone], the IC50 in data set [1] turned out to be 2.5 nM. The minimum inhibitory concentration (MIC) in the data set on T. b. rhodesiense IL1501 (Glycerol (+), final concentration of glycerol of 5 mM) came out at 70 nM; in the data set on T. b. rhodesiense IL1501 (Glycerol (−)), 500 nM.
In the case of `CCCCC/C(C)=C/COc1cc(O)c(C(C)=O)c(C)c1Cl` [Compound 270-8, (E)-3-Chloro-6-hydroxy-2-methyl-(3-methyl-2-octenoxy)acetophenone], in data set [1], the concentration for half-maximal inhibition (IC50) came to 300 nM. For the same molecule, the MIC stood at 3700 nM with T. b. rhodesiense IL1501 (setting [2]) and 9200 nM in the data set with T. b. rhodesiense IL1501 (setting [3]).
In turn, `C/C(C=O)=C\CC/C(C)=C/Cc1c(O)c(Cl)c(C)c(C=O)c1O` [Compound 274-9, 3-Chloro-5-[(2E,6E)-3,7-dimethyl-8-oxo-2,6-octadienyl]-4,6-dihydroxy-2-methylbenzaldehyde] yielded a melting point of 111.2 to 111.4 °C. In addition, the IC50 in data set [1] came out at 0.3 nM.
The matching figures for `C/C(=C\Cc1c(O)c(Cl)c(C)c(C=O)c1O)CC/C=C(\C)CCC1OC1(C)C` (stereo not shown) [Compound 281-12, 3-Chloro-5-[(2E,6E)-3,7-dimethyl-9-(3,3-dimethyloxiran-2-yl)-2,6-nonadienyl]-4,6-dihydroxy-2-methylbenzaldehyde]: 36 to 37 °C and 0.21 nM.
In the same order, the values of `CC(C)=CCCC#CCc1c(O)c(Cl)c(C)c(C=O)c1O` [Compound 285-8, 3-Chloro-4,6-dihydroxy-2-methyl-5-(7-methyl-6-octen-2-ynyl)benzaldehyde] are 138 °C and 0.3 nM.
In the same order, the values of `C/C(=C\Cc1c(O)c(Cl)c(C)c(C=O)c1O)CC/C=C(\C)C1OC(C)C(C)O1` (stereo not shown) [Compound 509-11, 3-Chloro-5-((2E,6E)-7-(4,5-dimethyl-1,3-dioxolane-2-yl)-3-methyl-2,6-octadienyl)-4,6-dihydroxy-2-methylbenzaldehyde] are 35 to 36 °C and 0.3 nM.
